The source made the active and inactive calls. No cut-off for these calls is given here.
Tests used:
HT-29 [1] = assay: Upregulation of H3K27me3 expression in 5-FU resistant human HT-29 cells incubated for 12 hrs by Western blot analysis; format: functional, cell-based; details: dose 2.5-20 µM, DDE = dose-dependent effect
HT-29 [2] = assay: Downregulation of DPD expression in 5-FU resistant human HT-29 cells incubated for 12 hrs by Western blot analysis; format: functional, cell-based; details: dose 2.5-20 µM, DDE = dose-dependent effect
SW620/5-FU [3] = assay: Antitumor activity against human SW620/5-FU cells xenografted in nude mouse assessed as tumor growth inhibition at 10 mg/kg/day, iv in presence of 5-FU; format: functional; details: read-out: TGI
SW620/5-FU [4] = assay: Reversal of 5-FU resistance in human SW620/5-FU cells assessed as fold reduction in 5-Fluorouracil IC50 at 5 uM incubated for 48 hrs; format: functional
SW620/5-FU [5] = assay: Induction of apoptosis in human SW620/5-FU cells assessed as viable cells at 10 uM incubated for 24 hrs by Annexin-V/PI staining based flow cytometry assay (reference value: 94.3%); format: functional; details: read-out: Activity
[6] = molecular target: Sphingosine 1-phosphate receptor 2 (Homo sapiens, UniProt O95136); assay: Binding affinity to S1PR2 (unknown origin) assessed as dissociation constant by surface plasmon resonance analysis
Sphingosine 1-phosphate receptor 2, sequence (O95136 whole entry): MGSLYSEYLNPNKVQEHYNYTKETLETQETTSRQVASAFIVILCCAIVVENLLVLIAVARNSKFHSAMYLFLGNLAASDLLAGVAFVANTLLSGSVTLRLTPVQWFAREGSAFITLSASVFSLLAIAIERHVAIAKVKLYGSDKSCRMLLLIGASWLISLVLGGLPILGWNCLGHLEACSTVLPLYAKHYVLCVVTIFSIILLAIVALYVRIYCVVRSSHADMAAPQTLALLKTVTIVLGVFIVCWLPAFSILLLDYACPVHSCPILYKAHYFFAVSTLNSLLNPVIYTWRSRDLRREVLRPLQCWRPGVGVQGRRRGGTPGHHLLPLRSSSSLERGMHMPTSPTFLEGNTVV

[7] = molecular target: Sphingosine 1-phosphate receptor 1 (Homo sapiens, UniProt P21453); assay: Binding affinity to S1PR1 (unknown origin) assessed as dissociation constant by surface plasmon resonance analysis
Sphingosine 1-phosphate receptor 1, sequence (P21453 whole entry): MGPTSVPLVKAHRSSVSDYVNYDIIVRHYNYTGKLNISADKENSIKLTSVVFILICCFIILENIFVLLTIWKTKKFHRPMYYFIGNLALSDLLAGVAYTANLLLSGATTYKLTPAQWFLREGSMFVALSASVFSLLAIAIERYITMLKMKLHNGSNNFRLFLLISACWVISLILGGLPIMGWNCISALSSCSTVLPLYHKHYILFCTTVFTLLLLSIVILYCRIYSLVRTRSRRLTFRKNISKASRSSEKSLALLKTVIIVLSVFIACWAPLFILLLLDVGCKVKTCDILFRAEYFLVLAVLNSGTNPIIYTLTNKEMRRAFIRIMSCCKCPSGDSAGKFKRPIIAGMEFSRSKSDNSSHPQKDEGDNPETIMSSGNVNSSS

SW620/5-FU [8] = assay: Downregulation of H3K27me3 expression in human SW620/5-FU cells at 10 uM incubated for 72 hrs by Western blot analysis; format: functional, cell-based
SW620/5-FU [9] = assay: Upregulation of H3K27me3 expression in human SW620/5-FU cells incubated for 12 hrs by Western blot analysis; format: functional, cell-based; details: dose 2.5-20 µM, DDE = dose-dependent effect
[10] = Toxicity in nude mouse xenografted with human SW620/5-FU cells assessed as morphological changes in heart at 1 to 10 mg/kg/day, iv by hematoxylin-eosin staining based analysis; format: organism-based; details: in vivo, dose 1-10 mg/kg/day
[11] = Metabolic stability in human plasma assessed as half life at 1 mg/ml incubated for 48 hrs by HPLC analysis; format: ADME, cell-free

CCC(CC)CN1CCN(C(=O)Nc2cc(Oc3ccc(F)cc3)cc(Oc3ccc(C(=O)NC)cc3)c2)CC1
Activity (HT-29 [1]): Dde
Activity (HT-29 [2]): Dde
inhibition in vivo at 10 mg/kg/day (SW620/5-FU [3]): 73.8%
fold change (FC) (SW620/5-FU [4]): 88
viability at 10 µM (SW620/5-FU [5]): 93.8%
Kd [6]: 730 pM
Kd [7]: > 100000 pM
Activity (SW620/5-FU [8]): Active
Activity (SW620/5-FU [9]): Dde
Activity [10]: Non-Toxic
half-life at 1 mg/ml [11]: > 48 h
